Experimental data reported in patent US20110105422A1, “USE OF G-RICH OLIGONUCLEOTIDES FOR TREATING NEOPLASTIC DISEASES” (priority 2008, published 2011).
“Also recorded” adds a separate entry of the source. Like-named read-outs stand apart in the source and are kept apart here.

Key:
MV411 cells = assay: Sulphorhodamine B (SRB) assay, MV411; format: cell-based; settings: MV411, 6 days
Description: (§1) Cells of the types described above were seeded in wells of a 96-well plate at a number optimised for each cell line.
(§2) A fixed concentration of AS1411 (either 1 μM or 2.5 μM) was added with varying concentrations of doxorubicin (ranging between 0.12 nM and 30667.0 nM) and cells were incubated for 6 days. A control was run with varying amounts of AS1411 without Doxorubicin. A second control series was run with the varying amounts of Doxorubicin but with no AS1411 present.
(§3) Cells were then washed, fixed to the 96-well plate with 16% TCA and exposed to the dye Sulphorhodamine B (SRB; available from Sigma-Aldrich, Dorset, UK; catalogue number S-1402). The optical density of the remaining cell mass after exposure to AS1411 was measured in a microplate spectrophotometer and IC50 determined.
(§4) The experiments were run in duplicate and the mean optical density calculated.
(§5) Combination index (CI) is determined using Calcusyn software (Biosoft, Cambridge UK) which employs the method of Chou, T.-C. and Talalay, P (See, Chou et al, Adv. Enz. Regul. 22: 27-55, 1984; and Chou, T.-C., Pharmacological Reviews 58:621-681, 2006.).

Daudi cells = assay: Sulphorhodamine B (SRB) assay, Daudi; format: cell-based, human
Description: as §1, §2, §3, §4, §5

Bax protein = assay: Western blot analysis, Bax; format: cell-based; settings: cells incubated with AS1411 for 4 days; whole cell lysate; both cell lines; normalised to β-actin
Description: (§6) Cells were incubated with AS1411 for 4 days, after which cell lysates were analysed by non-reducing SDS-PAGE analysis using 4-12% NuPAGE Bis-Tris Gels (Invitrogen).
(§7) 10 μg of total protein (whole cell lysate) was loaded per well as assessed by the Lowry assay (Lowry reagent available from Sigma-Aldrich, catalogue number L3540) and detected using ECL Advance western blotting kit (GE Healthcare).
(§8) Anti-nucleolin and bax antibodies were obtained from Santa Cruz and the β-actin antibody from QED.

A204 (rhabdomyosarcoma) = assay: SRB assay, paediatric cancer cell line A204; format: cell-based; settings: 6-day SRB, average of at least two experiments
Description: (§9) Cells were typically seeded in wells of a 96-well plate as follows for each cell line:
(§10) AS1411 (G rich oligonucleotide of sequence ID No. 1) was added at a concentration selected from 0, 0.1, 1, 5 or 20 µM and cells were incubated for 6 days
(§11) Cells were then washed, fixed to the 96-well plate and exposed to the dye Sulphorhodamine B (SRB; available from Sigma-Aldrich, Dorset, UK; catalogue number S-1402. The optical density of the remaining cell mass after exposure to AS1411 was measured in a microplate spectrophotometer and IC50 determined. For the time course experiments, AS1411 was washed off cells at the stated time-point, and then fresh medium applied to the cells which were left to grow for the full 6 days of the assay.
as §4

R-1059-D (osteosarcoma) = assay: SRB assay, paediatric cancer cell line R-1059-D; format: cell-based; settings: 6-day SRB, average of at least two experiments
Description: as §9, §10, §11, §4

Namalwa cells = assay: Sulphorhodamine B (SRB) assay, Namalwa; format: cell-based, human
Description: as §1, §2, §3, §4, §5

SUP-B15 (ALL) cells = assay: SRB assay, paediatric cancer cell line SUP-B15; format: cell-based; settings: SUP-B15, acute lymphoblastic leukaemia (ALL); 6-day SRB; average of at least two experiments
Description: as §9, §10, §11, §4

nucleolin = assay: Western blot analysis, nucleolin; format: cell-based; settings: cells incubated with AS1411 for 4 days; whole cell lysate
Description: as §6, §7, §8

Jurkat cells = assay: Sulphorhodamine B (SRB) assay, Jurkat; format: cell-based; settings: 6 days
Description: as §1, §2, §3, §4, §5

SK-N-AS (neuroblastoma) = assay: SRB assay, paediatric cancer cell line SK-N-AS; format: cell-based; settings: 6-day SRB, average of at least two experiments
Description: as §9, §10, §11, §4

HL-60 cells = assay: Sulphorhodamine B (SRB) assay, HL-60; format: cell-based; settings: HL-60, 6 days
Description: as §1, §2, §3, §4, §5

KG-1 cells = assay: Sulphorhodamine B (SRB) assay, KG-1; format: cell-based; settings: KG-1, 6 days
Description: as §1, §2, §3, §4, §5

K562 cells = assay: Sulphorhodamine B (SRB) assay, K562; format: cell-based; settings: K562, 6 days
Description: as §1, §2, §3, §4, §5

Raji cells = assay: Sulphorhodamine B (SRB) assay, Raji; format: cell-based, human
Description: as §1, §2, §3, §4, §5

MV4-11 (AML) cells = assay: SRB assay, paediatric cancer cell line MV4-11; format: cell-based; settings: MV4-11, acute myelogenous leukaemia (AML); 6-day SRB; average of at least two experiments
Description: as §9, §10, §11, §4

[1] = 6 days, SRB, AS1411 without doxorubicin, read-out: Mean IC50
[2] = Homo sapiens, 144 h, 6 days, SRB, IC50 as doxorubicin concentration, alone or with fixed AS1411, read-out: Mean IC50
[3] = Homo sapiens, doxorubicin alone, read-out: Doxorubicin IC50, Alone
[4] = Homo sapiens, in combination with 2.5 μM AS1411, read-out: Doxorubicin IC50, In combination with 2.5 μM AS1411
[5] = doxorubicin IC50 alone vs in combination with 2.5 μM AS1411
[6] = Homo sapiens, 144 h, IC50 as doxorubicin concentration, alone or with fixed AS1411

AS1411: G-rich oligonucleotide, SEQ ID No: 1, 5′-GGTGGTGGTGGTTGTGGTGGTGGTGG-3′
IC50 (MV411 cells; AS1411 without doxorubicin): 2360 nM
IC50 (Daudi cells; [1]): 9350 nM
Bax protein level (Western blot) (Bax protein): increased levels; also recorded: Up-regulation
IC50 (A204 (rhabdomyosarcoma)): 2.6 nM
IC50 (R-1059-D (osteosarcoma)): 4.7 nM
IC50 (Namalwa cells; Namalwa, 6 days, SRB, AS1411 without doxorubicin, read-out: Mean IC50): 3200 nM
IC50 (SUP-B15 (ALL) cells): 2.3 nM
total cell lysate nucleolin levels (Western blot) (nucleolin): no effect
IC50 (Jurkat cells; n=1, AS1411 without doxorubicin): 1130 nM
IC50 (SK-N-AS (neuroblastoma)): 3.2 nM
IC50 (HL-60 cells; AS1411 without doxorubicin): 2620 nM
IC50 (KG-1 cells; AS1411 without doxorubicin): 2320 nM
IC50 (K562 cells; AS1411 without doxorubicin): 7030 nM
IC50 (Raji cells; [1]): 4940 nM
IC50 (MV4-11 (AML) cells): 2.1 nM

COc1cccc2c1C(=O)c1c(O)c3c(c(O)c1C2=O)C[C@@](O)(C(=O)CO)C[C@@H]3O[C@@H]1CC(N)[C@@H](O)C(C)O1 (stereo partly drawn) [Doxorubicin, (8S,10S)-10-(4-amino-5-hydroxy-6-methyl-tetrahydro-2H-pyran-2-yloxy)-6,8,11-trihydroxy-8-(2-hydroxyacetyl)-1-methoxy-7,8,9,10-tetrahydrotetracene-5,12-dione]
IC50 (MV411 cells; Homo sapiens, MV4-11, 144 h, IC50 as doxorubicin concentration, alone or with fixed AS1411): 75.9 nM
IC50 (Daudi cells; [2]): 220 nM
IC50 (Daudi cells; [3]): 220 nM
IC50 (Daudi cells; [4]): 57.2 nM
Fold increase in potency (Daudi cells; [5]): 3.8 fold
IC50 (Namalwa cells; Homo sapiens, 144 h, Namalwa, 6 days, SRB, IC50 as doxorubicin concentration, alone or with fixed AS1411, read-out: Mean IC50): 69.7 nM
IC50 (Namalwa cells; Homo sapiens, NAMALWA, doxorubicin alone, read-out: Doxorubicin IC50, Alone): 69.7 nM
IC50 (Namalwa cells; Homo sapiens, NAMALWA, in combination with 2.5 μM AS1411, read-out: Doxorubicin IC50, In combination with 2.5 μM AS1411): 17.2 nM
Fold increase in potency (Namalwa cells; NAMALWA, doxorubicin IC50 alone vs in combination with 2.5 μM AS1411): 4.1 fold
IC50 (Jurkat cells; Homo sapiens, 144 h, n=1, IC50 as doxorubicin concentration, alone or with fixed AS1411): 426 nM
IC50 (HL-60 cells; [6]): 639 nM
IC50 (KG-1 cells; [6]): 4860 nM
IC50 (K562 cells; [6]): 1260 nM
IC50 (Raji cells; [2]): 746 nM
IC50 (Raji cells; [3]): 746 nM
IC50 (Raji cells; [4]): 327 nM
Fold increase in potency (Raji cells; [5]): 2.3 fold
